# Test results from US10053485B2, “Cytotoxic agents that preferentially target leukemia inhibitory factor (LIF) for the treatment of malignancies and as new contraceptive agents” (Evestra, Inc., priority 2015, dated 2018).
# Assays:
# [1] = tested on: MCF-7 (ER+ Breast Cancer); test: Short term (72 h) cytotoxicity assay; assay type: cell-based; conditions: Homo sapiens, MCF7; MCF-7, 72 h cytotoxicity
# [2] = tested on: unmodified MCF-7 human breast cancer cells; test: LIF specificity assay, unmodified cells; assay type: cell-based; conditions: Homo sapiens, MCF7, cytotoxicity
# [3] = tested on: NCI-H522; test: NCI-60 screen, Non-Small Cell Lung Cancer panel; assay type: cell-based; conditions: Homo sapiens, NCI-H522, 48 h
# [4] = tested on: Ishikawa (Endometrial Cancer); test: Short term (72 h) cytotoxicity assay; assay type: cell-based; conditions: Homo sapiens
# [5] = tested on: SK-MEL-5; test: NCI-60 screen, Melanoma panel; assay type: cell-based; conditions: Homo sapiens, SK-MEL-5, 48 h
# [6] = tested on: CAKI-1; test: NCI-60 screen, Renal Cancer panel; assay type: cell-based; conditions: Homo sapiens, CAKI-1, 48 h
# [7] = tested on: U251; test: NCI-60 screen, CNS Cancer panel; assay type: cell-based; conditions: Homo sapiens, U-251, 48 h
# [8] = tested on: IGROV-1 (Ovarian cancer cells); test: Short term (72 h) cytotoxicity assay; assay type: cell-based; conditions: Homo sapiens; IGROV-1, 72 h cytotoxicity
# [9] = tested on: SMAD phosphorylation (TGF-beta); test: Phosphorylation of SMAD; conditions: through blocking TGF-beta
# [10] = tested on: EKVX; test: NCI-60 screen, Non-Small Cell Lung Cancer panel; assay type: cell-based; conditions: Homo sapiens, 48 h, read-out: GI50 (log10GI50) (converted)
# [11] = tested on: RPMI-8226; test: NCI-60 screen, Leukemia panel; assay type: cell-based; conditions: Homo sapiens, RPMI-8226, 48 h
# [12] = tested on: MDA-MB-435; test: NCI-60 screen, Melanoma panel; assay type: cell-based; conditions: Homo sapiens, MDA-MB-435, 48 h
# [13] = tested on: BT-549; test: NCI-60 screen, Breast Cancer panel; assay type: cell-based; conditions: Homo sapiens, BT-549, 48 h
# [14] = tested on: MDA-MB-231 (TNBC) Xenograft; test: Tumor xenograft study, MDA-MB-231; assay type: in vivo, mice
# Procedure: Uniform suspensions of human breast cancer MDA-MB-231 and human ovarian cancer IGROV1 cells (2×10^6) in 100 μL (0.02 carboxymethyl cellulose in phosphate buffered saline) were injected subcutaneously into the right and left flanks of 4- to 5-week-old female athymic nude mice (Charles River Laboratories). After 10 days, when the tumor […] reaches 100 mm^3, the mice were randomly allocated to 3 groups of each containing 6 animals. […] All drug was suspended in PBS followed by sonication (15 seconds with an intermittent interval of 5 seconds) for 1 minute. Tumors were allowed to reach palpability before drug intervention. Tumor size was measured every 3 days using digital Vernier Calipers and tumor volume was calculated using the ellipsoid formula [D×(d2)]/2, where D is the large diameter of the tumor and d represents the small diameter. On day 31, the mice were euthanized and tumors were harvested for protein and gene expression studies. […] FIG. 6B depicts a graph of tumor volume vs. time for the administration of EC300 at 2.5 mg/kg twice weekly in the MDA-MB-231 (TNBC) Xenograft. […] FIG. 7 depicts a graph of tumor volume vs. time for the administration of EC300 at 5 mg/kg 5 days per week in the IGROV1 (Ovarian) Xenograft. […] STAT3 phosphorylation is reduced in tumors that underwent treatment compared to control which is an indication of LIF downstream target.
# [15] = tested on: T47D breast cancer cells; test: Soft agar colony formation assay; assay type: cell-based, human
# Procedure: Colonies of cancer cells formed in soft agar in the presence and absence of the testing compounds is a standard assay to interpret in-vitro tumorigenic potential in the basal layer. Agar was prepared by mixing 1% DNA grade agar melted and cooled to 40° C. with an equal volume of (2×) Dulbecco's Modified Eagle's Medium (DMEM) to obtain 0.5% agar that was dispersed in a 6-well plate and allowed to solidify. A total of 0.6% agar was prepared in RPMI medium and mixed together with T47D cells (0.5×10^6 cells/mL) and immediately plated on the basal layer in the presence or absence of testing compounds. The cultures were incubated at 37° C. in a CO2 incubator for 2 weeks, and colonies were stained with 0.005% crystal violet and observed under a light microscope.
# [16] = tested on: SNB-19; test: NCI-60 screen, CNS Cancer panel; assay type: cell-based; conditions: Homo sapiens, SNB-19, 48 h
# [17] = tested on: various cancer cells lines; test: Cytotoxicity assays in various cancer cell lines; assay type: cell-based; conditions: in words
# Procedure: Briefly, 5×10^3 cells were seeded in 96-well plates and incubated with compounds (0.0001-10 μmol/L) or dimethyl sulfoxide (DMSO; 0.02% v/v) for 24, 48, and 72 hours at 37° C. and cell viability was measured using a Fluoroscan plate reader.
# [18] = tested on: HCT-116; test: NCI-60 screen, Colon Cancer panel; assay type: cell-based; conditions: Homo sapiens, HCT-116, 48 h
# [19] = tested on: NCI-H23; test: NCI-60 screen, Non-Small Cell Lung Cancer panel; assay type: cell-based; conditions: Homo sapiens, NCI-H23, 48 h
# [20] = tested on: T-47D; test: NCI-60 screen, Breast Cancer panel; assay type: cell-based; conditions: Homo sapiens, T47D, 48 h
# [21] = tested on: MOLT-4; test: NCI-60 screen, Leukemia panel; assay type: cell-based; conditions: Homo sapiens, MOLT-4, 48 h
# [22] = read-out: GI50 (log10GI50) (converted)
# [23] = read-out: LC50 (log10LC50) (converted)
smiles,measurement,setting,value
"C#CC(F)(F)[C@]1(O)CCC2C3CCC4=CC(=O)CCC4=C3C(c3ccc(C4CC4)cc3)C[C@@]21C (stereo partly drawn) [EC330, 17α-(1,1-difluoro-2-propyn-1-yl)-17β-hydroxy-11β-[4-p-(cyclopropyl)phenyl]estra-4,9-dien-3-one]",IC50,[1],100 nM
same,IC50,[2],250 nM
same,GI50,[3]; [22],< 10 nM
same,CC50,[3]; [23],< 10 nM
same,IC50,[4],5 nM
same,GI50,[5]; [22],4680 nM
same,CC50,[5]; [23],43700 nM
same,GI50,[6]; [22],29.5 nM
same,CC50,[6]; [23],> 100000 nM
same,GI50,[7]; [22],151 nM
same,CC50,[7]; [23],5370 nM
same,IC50,[8],35 nM
same,phosphorylation of SMAD,[9],indirectly diminish the phosphorylation of SMAD
same,GI50,[10],< 10 nM
same,GI50,[11]; [22],112 nM
same,CC50,[11]; [23],> 100000 nM
same,GI50,[12]; [22],1860 nM
same,CC50,[12]; [23],> 100000 nM
same,GI50,[13]; [22],2090 nM
same,CC50,[13]; [23],> 100000 nM
same,apoptosis in xenograft tumors,"[14]; MDA-MB-231 xenograft tumors, FIG. 9",induced apoptosis dose dependently
same,tumor growth,[14]; human triple negative breast cancer (TNBC) model,significantly reduced
same,STAT3 phosphorylation in tumors,"[14]; treated vs. control, 'It is believed'",reduced
same,inhibition in the number of colonies formed,"[15]; 100 nM concentration, in words",complete inhibition
same,inhibition at 0.005 µM,"[15]; Homo sapiens, T47D, 5 nM concentration, read-out: inhibition in the number of colonies formed",50%
same,GI50,[16]; [22],3800 nM
same,CC50,[16]; [23],> 100000 nM
same,IC50's in cytotoxicity assays,[17],low nanomolar
same,GI50,[18]; [22],2820 nM
same,CC50,[18]; [23],> 100000 nM
same,GI50,[19]; [22],< 10 nM
same,CC50,[19]; [23],> 100000 nM
same,GI50,[20]; [22],< 10 nM
same,CC50,[20]; [23],> 100000 nM
same,GI50,[21]; [22],1700 nM
same,CC50,[21]; [23],> 100000 nM
